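Test compounds were applied to cells in 96-well plates for 48 hours at 5 doses. GI50: concentration for 50% inhibition of growth.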 Active and inactive are the calls of the source. No stated cut-off is given here; in the data, active = GI50 up to about 1.1 µM and inactive = higher.
Columns and labels:
Experiment in all cases: inhibition of tumour cell growth, NCI panel, 48 h
[1] = tested on: NCI-H226
[2] = tested on: EKVX
[3] = tested on: OVCAR-8
[4] = tested on: SK-OV-3
[5] = tested on: COLO 205
[6] = tested on: TK-10
[7] = tested on: CCRF-CEM
[8] = tested on: SK-MEL-5
[9] = tested on: SF-268
[10] = tested on: HCT-116
[11] = tested on: M19-MEL
[12] = tested on: SF-539
[13] = tested on: DLD-1
[14] = tested on: SK-MEL-28
[15] = tested on: NCI-H460
[16] = tested on: UACC-257
[17] = tested on: NCI-H23
[18] = tested on: SNB-19
[19] = tested on: OVCAR-5
[20] = tested on: CAKI-1
[21] = tested on: UO-31
[22] = tested on: RPMI-8226
[23] = tested on: HL-60
[24] = tested on: A549
[25] = tested on: 786-0
[26] = tested on: OVCAR-3
[27] = tested on: DMS-114
[28] = tested on: NCI-H522
[29] = tested on: LXFL 529
[30] = tested on: SNB-75
[31] = tested on: U-251
[32] = tested on: ACHN
[33] = tested on: SW-620
[34] = tested on: A498
[35] = tested on: HOP-92
[36] = tested on: Malme-3M
[37] = tested on: HT-29
[38] = tested on: SK-MEL-2
[39] = tested on: SF-295
[40] = tested on: KM12
[41] = tested on: HOP-62
[42] = tested on: UACC-62
[43] = tested on: SNB-78
[44] = tested on: K562
[45] = tested on: KM-20L2
[46] = tested on: HOP-18
[47] = tested on: MOLT-4
[48] = tested on: OVCAR-4
[49] = tested on: HCC 2998
[50] = tested on: IGROV-1
[51] = tested on: M14
[52] = tested on: SR
[53] = tested on: BT-549
[54] = tested on: T47D
[55] = tested on: MDA-MB-435
[56] = tested on: MDA-MB-231
[57] = tested on: MCF7
[58] = tested on: MDA-N
[59] = tested on: RXF 393
[60] = tested on: PC-3
[61] = tested on: HCT-15
[62] = tested on: NCI/ADR-RES
[63] = tested on: LOX IMVI
[64] = tested on: DU-145
[65] = tested on: Hs-578T
[66] = tested on: SN12C
[67] = tested on: DMS-273

Measured: GI50

CCOc1ccc2c(c1)[n+]([O-])c(S(=O)(=O)c1ccc(C)cc1)c(N)[n+]2[O-]
inactive: [1] > 100 µM | [2] > 100 µM | [3] > 100 µM | [4] > 100 µM | [5] > 100 µM | [6] > 100 µM | [7] > 100 µM | [8] > 100 µM | [9] > 100 µM | [10] > 100 µM | [11] > 100 µM | [12] > 100 µM | [13] > 100 µM | [14] > 100 µM | [15] > 100 µM | [16] > 100 µM | [17] > 100 µM | [18] > 100 µM | [19] > 100 µM | [20] > 100 µM | [21] > 100 µM | [22] > 100 µM | [23] > 100 µM | [24] > 100 µM | [25] > 100 µM | [26] > 100 µM | [27] > 100 µM | [28] 49.2 µM | [29] > 100 µM | [30] 91.6 µM | [31] > 100 µM | [32] > 100 µM | [33] > 100 µM | [34] > 100 µM | [35] > 100 µM | [36] > 100 µM | [37] > 100 µM | [38] > 100 µM | [39] > 100 µM | [40] > 100 µM | [41] > 100 µM | [42] > 100 µM | [43] > 100 µM | [44] > 100 µM | [45] > 100 µM | [46] > 100 µM | [47] > 100 µM | [48] > 100 µM | [49] > 100 µM | [50] > 100 µM | [51] > 100 µM

Cc1ccc2[nH]c3c(C)c4cc[n+](C)cc4c(C)c3c2c1
14.1 µM: [61]
active: [1] 0.74 µM | [3] 0.612 µM | [5] 0.828 µM | [53] 0.753 µM | [9] 0.441 µM | [12] 0.849 µM | [18] 0.499 µM | [56] 0.931 µM | [24] 0.325 µM | [25] 0.328 µM | [27] 0.61 µM | [60] 0.63 µM | [28] 1.03 µM | [29] 0.743 µM | [30] 0.251 µM | [31] 0.41 µM | [33] 0.374 µM | [64] 0.628 µM | [34] 0.891 µM | [65] 0.232 µM | [39] 0.462 µM | [40] 0.67 µM | [66] 0.271 µM | [41] 0.774 µM | [43] 0.787 µM
inactive: [2] 1.27 µM | [4] 2.51 µM | [52] 2.56 µM | [6] 5.42 µM | [7] 3.06 µM | [8] 1.65 µM | [10] 1.36 µM | [13] 1.67 µM | [14] 2.12 µM | [15] 3.66 µM | [16] 3.71 µM | [17] 1.23 µM | [54] 1.55 µM | [55] 2.45 µM | [19] 5 µM | [20] 3.59 µM | [21] 5.19 µM | [57] 1.95 µM | [22] 16.1 µM | [23] 5.12 µM | [58] 4.03 µM | [59] 1.42 µM | [26] 2.84 µM | [62] 7.93 µM | [63] 5 µM | [32] 4.92 µM | [35] 4.32 µM | [36] 1.38 µM | [37] 3.33 µM | [38] 1.7 µM | [42] 2.68 µM | [44] 1.41 µM | [45] 3.96 µM | [67] 2.33 µM | [46] 9.66 µM | [47] 5.87 µM | [48] 2.54 µM | [49] 2.06 µM | [50] 1.19 µM | [51] 6.43 µM

From ChEMBL document CHEMBL1201862, “PubChem BioAssay data set” (2004)
